{
  "source": "paper PMC5423977",
  "about": "“Safety, pharmacokinetics, and pharmacodynamics of BMS-986142, a novel reversible BTK inhibitor, in healthy participants” (European Journal of Clinical Pharmacology, 2017)",
  "key": {"[1]": {"conditions": "rats, 1-month GLP toxicology study; cited from earlier work"}, "[2]": {"assay": "Safety (adverse events), Study 2 MTX-DDI in healthy male participants", "method": "This portion of the study was designed to assess the effect of BMS-986142 on the PK of MTX since MTX is used as a background therapy in RA patients and all patients will receive MTX when the phase 2 study of BMS-986142 is conducted. Eligible participants were confined to the clinical facility for the duration of treatment (15 days). Healthy participants were administered a single oral dose of 7.5 mg MTX on day 1. On day 2, participants received leucovorin (a single oral dose of 15 mg) as a preventive measure for MTX toxicity. After a washout period (days 2–5), BMS-986142 was administered on days 6–10 in 350-mg QD doses. A concomitant dose of MTX (7.5 mg) was administered on day 8, followed by leucovorin (15 mg) on day 9 (Online Resource 2). BMS-986142 was administered with 240 mL of water, and a minimum amount of additional water was permitted to allow dosing of all medications. Only healthy male participants (ages ≥18 to ≤50 years) were eligible for the MTX-DDI assessment in study 2. Other key inclusion and exclusion criteria were identical to those in study 1.\nParticipants were monitored for adverse events (AEs) throughout the study. Clinical laboratory tests, vital sign measurements, 12-lead ECGs, and physical examinations were performed at selected times throughout the dosing interval. Safety data was recorded in the participants’ medical records, and assessments were performed for emergent AEs or serious AEs (SAEs). For all AEs, causal relationship to the study drug was determined by an investigator."}, "CD69 expression": {"tested_on": "CD69 expression", "parameters": "method as in PMID 27583770", "conditions": "in vitro; read-out: IC50 of CD69 inhibition derived from in vitro evaluation; cited from earlier work"}, "[3]": {"tested_on": "collagen-induced arthritis model", "conditions": "combined with standard of care agents (e.g., MTX); cited from earlier work"}, "[4]": {"conditions": "BMS-986142 350 mg QD (Days 6 and 7), n = 12"}, "[5]": {"conditions": "BMS-986142 350 mg QD (Days 8 to 10) + MTX 7.5 mg (Day 8) + leucovorin 15 mg (Day 9), n = 12"}},
  "data": [
    {"smiles": "Cc1c(-c2c(F)cc(C(N)=O)c3[nH]c4c(c23)CC[C@H](C(C)(C)O)C4)cccc1-n1c(=O)c2cccc(F)c2n(C)c1=O", "note": "[BMS-986142, 6-fluoro-5-(R)-(3-(S)-(8-fluoro-1-methyl-2,4-dioxo-1,2-dihydroquinazolin-3(4H)-yl)-2-methylphenyl)-2-(S)-(2-hydroxypropan-2-yl)-2,3,4,9-tetrahydro-1H-carbazole-8-carboxamide]", "values": [
      {"measurement": "Steady-state exposure (AUC) at NOAEL", "setting": "[1]", "value": "22,920 ng h/mL"},
      {"measurement": "AE SOC: Gastrointestinal Disorders", "setting": "[2]; [4]", "value": "0 n (%)"},
      {"measurement": "AE SOC: General disorders and administration site conditions", "setting": "[2]; [4]", "value": "0 n (%)"},
      {"measurement": "AE SOC: Infections and infestations", "setting": "[2]; [4]", "value": "0 n (%)"},
      {"measurement": "AE SOC: Injury, poisoning and procedural complications", "setting": "[2]; [4]", "value": "0 n (%)"},
      {"measurement": "AE SOC: Nervous system disorders", "setting": "[2]; [4]", "value": "1 (8.3) n (%)"},
      {"measurement": "AE SOC: Psychiatric disorders", "setting": "[2]; [4]", "value": "1 (8.3) n (%)"},
      {"measurement": "AE: Anxiety", "setting": "[2]; [4]", "value": "0 n (%)"},
      {"measurement": "AE: Arthropod Bite", "setting": "[2]; [4]", "value": "0 n (%)"},
      {"measurement": "AE: Asthenia", "setting": "[2]; [4]", "value": "0 n (%)"},
      {"measurement": "AE: Dizziness", "setting": "[2]; [4]", "value": "0 n (%)"},
      {"measurement": "AE: Fatigue", "setting": "[2]; [4]", "value": "0 n (%)"},
      {"measurement": "AE: Headache", "setting": "[2]; [4]", "value": "1 (8.3) n (%)"},
      {"measurement": "AE: Nausea", "setting": "[2]; [4]", "value": "0 n (%)"},
      {"measurement": "AE: Sleep Disorder", "setting": "[2]; [4]", "value": "1 (8.3) n (%)"},
      {"measurement": "AE: Tremor", "setting": "[2]; [4]", "value": "0 n (%)"},
      {"measurement": "AE: Viral Infection", "setting": "[2]; [4]", "value": "0 n (%)"},
      {"measurement": "Total participants with an event", "setting": "[2]; [4]", "value": "2 (16.7) n (%)"},
      {"measurement": "AE SOC: Gastrointestinal Disorders", "setting": "[2]; [5]", "value": "2 (16.7) n (%)"},
      {"measurement": "AE SOC: General disorders and administration site conditions", "setting": "[2]; [5]", "value": "1 (8.3) n (%)"},
      {"measurement": "AE SOC: Infections and infestations", "setting": "[2]; [5]", "value": "1 (8.3) n (%)"},
      {"measurement": "AE SOC: Injury, poisoning and procedural complications", "setting": "[2]; [5]", "value": "1 (8.3) n (%)"},
      {"measurement": "AE SOC: Nervous system disorders", "setting": "[2]; [5]", "value": "2 (16.7) n (%)"},
      {"measurement": "AE SOC: Psychiatric disorders", "setting": "[2]; [5]", "value": "1 (8.3) n (%)"},
      {"measurement": "AE: Anxiety", "setting": "[2]; [5]", "value": "1 (8.3) n (%)"},
      {"measurement": "AE: Arthropod Bite", "setting": "[2]; [5]", "value": "1 (8.3) n (%)"},
      {"measurement": "AE: Asthenia", "setting": "[2]; [5]", "value": "0 n (%)"},
      {"measurement": "AE: Dizziness", "setting": "[2]; [5]", "value": "2 (16.7) n (%)"},
      {"measurement": "AE: Fatigue", "setting": "[2]; [5]", "value": "1 (8.3) n (%)"},
      {"measurement": "AE: Headache", "setting": "[2]; [5]", "value": "1 (8.3) n (%)"},
      {"measurement": "AE: Nausea", "setting": "[2]; [5]", "value": "2 (16.7) n (%)"},
      {"measurement": "AE: Sleep Disorder", "setting": "[2]; [5]", "value": "0 n (%)"},
      {"measurement": "AE: Tremor", "setting": "[2]; [5]", "value": "0 n (%)"},
      {"measurement": "AE: Viral Infection", "setting": "[2]; [5]", "value": "1 (8.3) n (%)"},
      {"measurement": "Total participants with an event", "setting": "[2]; [5]", "value": "4 (33.3) n (%)"},
      {"measurement": "Number of AEs reported", "setting": "[2]; Study 2, BMS-986142 on days 6 and 7", "value": 2, "unit": "AEs"},
      {"measurement": "Number of AEs reported", "setting": "[2]; Study 2, concomitant MTX and BMS-986142 (days 8–10)", "value": 9, "unit": "AEs"},
      {"measurement": "AE: Cough", "setting": "[2]; Study 2, n = 12", "value": "0 n (%)"},
      {"measurement": "AE: Diarrhea", "setting": "[2]; Study 2, n = 12", "value": "0 n (%)"},
      {"measurement": "AE: Dizziness", "setting": "[2]; Study 2, n = 12", "value": "2 (16.7) n (%)"},
      {"measurement": "AE: Headache/tension headache", "setting": "[2]; Study 2, n = 12", "value": "1 (8.3) n (%)"},
      {"measurement": "AE: Nausea", "setting": "[2]; Study 2, n = 12", "value": "2 (16.7) n (%)"},
      {"measurement": "AE: Thermal burns", "setting": "[2]; Study 2, n = 12", "value": "0 n (%)"},
      {"measurement": "AE: Upper respiratory tract infection", "setting": "[2]; Study 2, n = 12", "value": "0 n (%)"},
      {"measurement": "Subjects with AEs", "setting": "[2]; Study 2, n = 12", "value": "4 (33.3) n (%)"},
      {"measurement": "IC50", "setting": "CD69 expression", "value": 90, "unit": "nM"},
      {"measurement": "Efficacy against disease endpoints in combination", "setting": "[3]", "value": "Added benefit against disease endpoints"}
    ]}
  ]
}
